Here are results for seven compounds from US12263248B2, “Compounds and compositions for intracellular delivery of therapeutic agents” (ModernaTX, Inc., priority 2018, dated 2025).

For series [1], the system named is luciferase (Luc) mRNA. As to the kind of experiment: Luc expression, whole body bioluminescence after intravenous administration to mice. The class given is in vivo. The settings on record: for Fold increase in total body Luc Flux relative to MC3 at 6 h: Table 3A, i.v. administration; for Total Flux 3 hours / Total Flux 6 hours / Total Flux 24 hours: Luc mRNA. In outline:
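Luc mRNA nanoparticle formulations given intravenously to mice (n=6) at 0.5 mg/kg; whole-body bioluminescence imaged at 3, 6 and 24 h. CD-1 mice received IP D-luciferin (200 μL of 15 mg/mL) 15 min before imaging; total flux quantified by region of interest.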

In series [2] the test system is IL-6, IP-10. Briefly: Cytokine induction in mice upon intravenous administration. The class given is in vivo. The settings on record: 0.5 mpk, 6 hours; for Cytokine induction IL-6 / Cytokine induction IP-10: intravenous. The arrangement: Cytokine induction IL-6 / Cytokine induction IP-10: unit not given here. In outline:
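Mice dosed intravenously with nanoparticle compositions at 0.5 mpk; serum cytokine concentrations (IL-6, IP-10) measured at 6 hours. MC3 formulation and PBS controls run alongside.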

In series [3] the test system is luciferase (Luc) mRNA. As to the kind of experiment: Luc expression (total flux) after intramuscular administration. The class given is in vivo, mice. The following applies: for Total flux, 0.001 mpk Dose / Total flux, 0.01 mpk Dose: 6 hours after intramuscular administration, Luc mRNA and H10 mRNA; for Novel lipid/MC3 expression ratio, 6 hr. time point, i.m. Luc: relative to MC3 formulation. In outline: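 Mice given a single intramuscular dose of lipid nanoparticle formulations carrying modified Luc mRNA, alone or with H10 mRNA, at 0.001 or 0.01 mpk total. Luciferase expression recorded as total flux.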

Series [4] is described as follows: Particle size and polydispersity index of nanoparticle compositions (Zetasizer Nano ZS). Type of series: physicochemical. In outline: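 Nanoparticle compositions are diluted in 1×PBS, then size and polydispersity index are read on a Zetasizer Nano ZS instrument.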
In series [5] the test system is luciferase (Luc) mRNA. As to the kind of experiment: Luc expression in liver, lung, spleen and femur 6 hours after intravenous administration. The class given is in vivo. The settings on record: mice, 0.5 mpk; for Total Flux Liver / Total Flux Lung / Total Flux Spleen / Total Flux Femur: intravenous. Put shortly:
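LNP-formulated mRNA given IV to mice (n=3) at 0.5 mpk; at 6 h, bioluminescence imaged ex vivo 15 min after IP D-luciferin (15 mg/mL, 200 μL), organs imaged within 25 min. Values are total flux by region of interest.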

[6] abbreviates: Table 1A, lipid:DSPC:cholesterol:PEG-DMG 50:10:38.5:1.5 mol %.
Setting [7] is: lipid nanoparticle, ±SD within one assay run (Table 37).
Where [8] appears, read: Table 1B, formulated with hEPO mRNA.
[9] abbreviates: Table 1C, compositions for subcutaneous administration.
Where [10] appears, read: Table 1D, for subcutaneous administration, # formulated with hEPO mRNA.

In the case of `CCCCCCCCC(CCCCCCCC)OC(=O)CCCCCCCN(CCO)CCCCCCCC(=O)OCC1CC1CCCCCC` (centres unmarked) [Compound 28, Heptadecan-9-yl 8-((8-((2-hexylcyclopropyl)methoxy)-8-oxooctyl)(2-hydroxyethyl)amino)octanoate], the “Fold increase in total body Luc Flux relative to MC3 at 6 h” value in series [1] is listed as 2.46. In series [1] (mice, i.v., 0.5 mg/kg), the “Total Flux 3 hours” value is 8.98E+10, the “Total Flux 6 hours” value stood at 1.13E+11 and the “Total Flux 24 hours” value is 1.20E+09. Besides, the “total flux at 3 hours” value in series [1] (mice, i.v., 0.5 mg/kg, comparison in words) is on record as “highest”. Also, the IL-6 induction entry in series [2] (i.v., in words) is “lowest”. In series [2], the “Cytokine induction IL-6” value was determined as 17.47 and the “Cytokine induction IP-10” value is on record as 283.13. In addition, in series [3] (0.001 mpk), the “Total flux, 0.001 mpk Dose” value stood at 6.73E+05 p/s. Besides, the “Total flux, 0.01 mpk Dose” value in series [3] (0.01 mpk) is reported as 5.56E+06 p/s. Besides, the PDI in series [4] (Table 1A) was determined as 0.20. For the same compound, the “Size (nm)” value in series [4] (setting [6]) is 99.4 nm. The “Flux in the liver” value in series [5] (i.v., in words) is “highest”. Further, in series [5], the “Total Flux Liver” value came out at 1.22E+10, the “Total Flux Lung” value is recorded as 2.17E+08 and the “Total Flux Spleen” value turned out to be 1.80E+08.
Turning to `CCCCCCCCC(CCCCCCCC)OC(=O)CCCCCCCN(CCO)CCCCCCCC(=O)OC(CCCCCCCC)CCCCCCCC` [Compound 29, Di(heptadecan-9-yl) 8,8′-((2-hydroxyethyl)azanediyl)dioctanoate], the “Fold increase in total body Luc Flux relative to MC3 at 6 h” value in series [1] is on record as 0.78. In addition, in series [1] (intravenous, 0.5 mpk), the “Fold increase in Luc expression relative to MC3, Intravenous (0.5 mpk dose)” value came out at 1.03. Further, in series [1] (mice, i.v., 0.5 mg/kg), the “Total Flux 3 hours” value worked out at 4.61E+09, the “Total Flux 6 hours” value turned out to be 2.89E+09 and the “Total Flux 24 hours” value came out at 3.55E+08. Besides, the “luciferase activity relative to MC3 LNP control” value in series [1] (mice, intravenous, 0.5 mg/kg (mRNA dose)) is recorded as “lower luciferase activity”. Also, in series [2], the “Cytokine induction IL-6” value is on record as 69.54 and the “Cytokine induction IP-10” value worked out at 1362.81. Besides, the “Total flux, 0.001 mpk Dose” value in series [3] (0.001 mpk) is 7.64E+05 p/s. The “Total flux, 0.01 mpk Dose” value in series [3] (0.01 mpk) was found to be 1.12E+07 p/s. For the same compound, the “Fold increase in Luc expression relative to MC3, Intramuscular (0.001 mpk dose)” value in series [3] (intramuscular, 0.001 mpk) turned out to be 0.11. In series [3] (intramuscular, 0.01 mpk), the “Fold increase in Luc expression relative to MC3, Intramuscular (0.01 mpk dose)” value is on record as 0.25. In series [4] (Table 1A), this compound showed a PDI of 0.11. For the same compound, the “Size (nm)” value in series [4] (setting [6]) was 66.8 nm. Besides, in series [4] (setting [7]), the “PDI (Polydispersity index)” value worked out at 0.11 ± 0.03 and the Size stood at 66.8 ± 1.1 nm. In series [5], the “Total Flux Femur” value is listed as 9.56E+05, the “Total Flux Liver” value was 5.20E+08, the “Total Flux Lung” value stood at 9.83E+05 and the “Total Flux Spleen” value amounted to 5.99E+06.
For `CCCCCCCCCOC(=O)CCCCCCCN(CCO)CCCCCCCOC(=O)C(CCCCCCCC)CCCCCCCC` [Compound 30, 7-((2-Hydroxyethyl)(8-(nonyloxy)-8-oxooctyl)amino)heptyl 2-octyldecanoate], the “Fold increase in total body Luc Flux relative to MC3 at 6 h” value in series [1] is given as 2.49. Moreover, the “Novel lipid/MC3 ratio, 6 hr. timepoint, i.v.” value in series [1] (luciferase, intravenous, relative to MC3, Table 3G) is listed as 2.49. Also, the “Novel lipid/MC3 expression ratio, 6 hr. time point, i.v.” value in series [1] (luciferase, intravenous, relative to MC3 formulation) is given as 2.49. Moreover, in series [1] (mice, i.v., 0.5 mg/kg), the “Total Flux 3 hours” value is recorded as 1.19E+10, the “Total Flux 6 hours” value turned out to be 2.09E+10 and the “Total Flux 24 hours” value worked out at 1.21E+09. Also, in series [2], the “Cytokine induction IL-6” value is on record as 152.51 and the “Cytokine induction IP-10” value is on record as 1638.77. The “Total flux, 0.001 mpk Dose” value in series [3] (0.001 mpk) was found to be 2.47E+06 p/s. The “Total flux, 0.01 mpk Dose” value in series [3] (0.01 mpk) amounted to 3.77E+07 p/s. Moreover, the “Novel lipid/MC3 expression ratio, 6 hr. time point, i.m. Luc” value in series [3] (intramuscular) is recorded as 4.69. This compound also came in with a PDI in series [4] (Table 1A) of 0.15. For the same compound, the “Size (nm)” value in series [4] (setting [6]) was 59.4 nm. Besides, in series [4] (setting [8]), the PDI is recorded as 0.13 and the “Size (nm)” value was found to be 76.3 nm. Also, in series [4] (setting [9]), the PDI was found to be 0.12 and the “Size (nm)” value is listed as 81.7 nm. Besides, in series [4] (setting [10]), the PDI is 0.11 and the “Size (nm)” value is 89.8 nm. Further, in series [5], the “Total Flux Femur” value is given as 6.38E+06, the “Total Flux Liver” value came out at 2.68E+09, the “Total Flux Lung” value turned out to be 1.02E+07 and the “Total Flux Spleen” value came to 3.55E+07.
In the case of `CCCCCCCCCOC(=O)CCCCCCCN(CCO)CCCCCCCC(=O)OCCCCCCCCC` [Compound 138, Dinonyl 8,8′-((2-hydroxyethyl)azanediyl)dioctanoate], in series [1] (mice, i.v., 0.5 mg/kg), the “Total Flux 3 hours” value is on record as 2.97E+07, the “Total Flux 6 hours” value came out at 2.30E+07 and the “Total Flux 24 hours” value came out at 1.63E+06. Besides, in series [2], the “Cytokine induction IL-6” value stood at 23.38 and the “Cytokine induction IP-10” value amounted to 172.56. In addition, the “Total flux, 0.001 mpk Dose” value in series [3] (0.001 mpk) stood at 2.72E+05 p/s. Also, the “Total flux, 0.01 mpk Dose” value in series [3] (0.01 mpk) was determined as 1.19E+06 p/s. Further, the PDI in series [4] (Table 1A) is less than 0.5. For the same compound, the “Size (nm)” value in series [4] (setting [6]) was determined as 179.4 nm. Besides, in series [4] (setting [7]), the “PDI (Polydispersity index)” value turned out to be 0.14 ± 0.05. Further, in series [5], the “Total Flux Femur” value is 1.58E+05, the “Total Flux Liver” value was found to be 3.66E+06, the “Total Flux Lung” value was determined as 9.47E+04 and the “Total Flux Spleen” value is listed as 4.04E+06.
For `CCCCCCCC/C=C\COC(=O)CCCCCN(CCO)CCCCCC(=O)OC/C=C\CCCCCCCC` [Compound 140, Di((Z)-undec-2-en-1-yl) 6,6′-((2-hydroxyethyl)azanediyl)dihexanoate], in series [1] (mice, i.v., 0.5 mg/kg), the “Total Flux 3 hours” value stood at 3.74E+06, the “Total Flux 6 hours” value was found to be 1.70E+06 and the “Total Flux 24 hours” value was 5.67E+05. Moreover, the “flux at all timepoints measured” value in series [1] (mice, i.v., 0.5 mg/kg, 3, 6 and 24 hour, in words) was “significantly lower flux”. For the same compound, in series [2], the “Cytokine induction IL-6” value is 282.82 and the “Cytokine induction IP-10” value is recorded as 187.83. The “Total flux, 0.001 mpk Dose” value in series [3] (0.001 mpk) is on record as 2.03E+05 p/s. Also, the “Total flux, 0.01 mpk Dose” value in series [3] (0.01 mpk) turned out to be 6.09E+05 p/s. In addition, the PDI in series [4] (Table 1A) is on record as 0.84. The “Size (nm)” value in series [4] (setting [6]) was determined as 120.3 nm. In series [5], the “Total Flux Femur” value worked out at 3.26E+04, the “Total Flux Liver” value was 4.21E+05, the “Total Flux Lung” value was 2.14E+04 and the “Total Flux Spleen” value turned out to be 2.22E+05.
In the case of `CCCCCCCCCOC(=O)CCCCCCCN(CCO)CCCCCCC(=O)OCC(CCCCCCCC)CCCCCCCC` [Compound 143, Nonyl 8-((2-hydroxyethyl)(7-((2-octyldecyl)oxy)-7-oxoheptyl)amino)octanoate], in series [1] (mice, i.v., 0.5 mg/kg), the “Total Flux 3 hours” value was 1.76E+10, the “Total Flux 6 hours” value is reported as 2.03E+10 and the “Total Flux 24 hours” value came to 2.47E+08. In addition, in series [2], the “Cytokine induction IL-6” value stood at 6.245 and the “Cytokine induction IP-10” value worked out at 209.63. In series [3] (Table 3H, intramuscular, Luc), the “AUC (p/s * h)” value is 2.29E+09 p/s * h and the “Lipid/MC3 AUC” value amounted to 3.89. For the same compound, the “Novel lipid/MC3 expression ratio, 6 hr. time point, i.m. Luc” value in series [3] (intramuscular) came out at 4.05. In series [4] (Table 1A), the PDI amounted to 0.21. Also, the “Size (nm)” value in series [4] (setting [6]) was 98.8 nm. In addition, in series [5], the “Total Flux Liver” value is reported as 1.76E+09, the “Total Flux Lung” value came out at 3.60E+07 and the “Total Flux Spleen” value turned out to be 1.42E+08.
Take `CCCCCCCCCOC(=O)CCCCCCCN(CCO)CCCCCCCC(=O)N(CCCCCCCC)CCCCCCCC` [Compound 144, Nonyl 8-((8-(dioctylamino)-8-oxooctyl)(2-hydroxyethyl)amino)octanoate]: in series [1] (mice, i.v., 0.5 mg/kg), the “Total Flux 3 hours” value is reported as 9.50E+09, the “Total Flux 6 hours” value worked out at 1.82E+09 and the “Total Flux 24 hours” value came out at 3.36E+08. In series [2], the “Cytokine induction IL-6” value turned out to be 319.46 and the “Cytokine induction IP-10” value worked out at 4220.55. Further, in series [3] (0.001 mpk), the “Total flux, 0.001 mpk Dose” value is listed as 2.72E+06 p/s. Further, the “Total flux, 0.01 mpk Dose” value in series [3] (0.01 mpk) was determined as 2.18E+07 p/s. The PDI in series [4] (Table 1A) is listed as 0.22. Also, the “Size (nm)” value in series [4] (setting [6]) was determined as 135.9 nm. Further, in series [5], the “Total Flux Femur” value is reported as 2.44E+06, the “Total Flux Liver” value is on record as 3.75E+08, the “Total Flux Lung” value was 4.81E+06 and the “Total Flux Spleen” value was 5.11E+07.
